Data taken from ChEMBL document CHEMBL3098038, “Verrulactone C with an unprecedented dispiro skeleton, a new inhibitor of Staphylococcus aureus enoyl-ACP reductase, from Penicillium verruculosum F375” (Bioorg Med Chem Lett, 2014).
≈ marks a conversion by molar mass, not a printed value. Calls of active or inactive are those of the source. The rule behind the calls is not given here.

Assays:
[1] = system: Bacillus cereus; assay: Antibacterial activity against Bacillus cereus KCTC 1661; assay type: functional
[2] = system: Staphylococcus aureus; assay: Antibacterial activity against methicillin-resistant Staphylococcus aureus CCARM 3167; assay type: functional
[3] = system: Staphylococcus aureus; assay: Antibacterial activity against quinolone-resistant Staphylococcus aureus CCARM 3505; assay type: functional
[4] = system: Staphylococcus aureus; assay: Antibacterial activity against Staphylococcus aureus RN4220; assay type: functional
[5] = (§1) Inhibition of Staphylococcus aureus FabI-mediated trans-2-octenoyl N-acetylcysteamine reduction assessed as NADPH level by ELISA
[6] = system: Staphylococcus aureus; assay: Inhibition of Staphylococcus aureus FabG using acetoacetyl-CoA as substrate assessed as NADPH level at 300 uM by ELISA
[7] = system: Staphylococcus aureus; assay: as §1

SMILES	MIC [1] [µg/mL]	MIC [2] [µg/mL]	MIC [3] [µg/mL]	MIC [4] [µg/mL]	IC50 [5] [µM]	inhibition [6]	inhibition [7]
COc1cc(O)c2c(=O)oc3c(-c4c(O)c(O)cc5oc(=O)c6c(O)cc(OC)cc6c45)c(O)c(O)cc3c2c1 [VERRULACTONE B]	8 (≈ 14.6 µM)	8 (≈ 14.6 µM)	8 (≈ 14.6 µM)	8 (≈ 14.6 µM)	1.41		
COc1cc(O)c2c(=O)oc3cc(O)c(O)cc3c2c1	8 (≈ 29.2 µM)	8 (≈ 29.2 µM)	8 (≈ 29.2 µM)	8 (≈ 29.2 µM)	85.4	inactive	Dose-dependent effect
COc1cc(O)c2c(=O)oc3cc(O)c(O)c(-c4c(O)c(O)cc5oc(=O)c6c(O)cc(OC)cc6c45)c3c2c1 [VERRULACTONE A]	8 (≈ 14.6 µM)	8 (≈ 14.6 µM)	8 (≈ 14.6 µM)	8 (≈ 14.6 µM)	0.92		
Oc1cc(Cl)ccc1Oc1ccc(Cl)cc1Cl [TRICLOSAN]	0.01 (≈ 0.0345 µM)	0.01 (≈ 0.0345 µM)	0.01 (≈ 0.0345 µM)	0.01 (≈ 0.0345 µM)			
COc1cc(O)c2c(c1)[C@@]1(OC2=O)C(C)=CC(=O)[C@]12C(=O)c1c(O)c(O)cc3oc(=O)c4c(O)cc(OC)c2c4c13 (relative stereo)	32 (≈ 57.3 µM)	32 (≈ 57.3 µM)	32 (≈ 57.3 µM)	32 (≈ 57.3 µM)	16.1	inactive	Dose-dependent effect
